Values of other authors, collected in patent publication US20200368234A1, “PHOTORECEPTOR GENE MODULATOR PHOTOREGULIN 3 FOR TREATMENT OF RETINAL DISEASE” (University of Washington, priority 2017, published 2020).

Columns and labels:
[1] = system: Rho^P23H; conditions: Rho^P23H model of RP; previously reported; cited from earlier work
[2] = system: rod gene expression; conditions: developing or mature retina treated with PR1; previously reported; cited from earlier work
[3] = system: Pde6b^Rd1; conditions: Pde6b^Rd1 model of RP; previously reported; cited from earlier work

## Cc1cc(C)cc(NC(=O)CCc2nc3sc4c(c3c(=O)[nH]2)CCCC4)c1 [PR1]
[1]
  rod degeneration in vitro: slows rod degeneration in vitro
[2]
  rod and cone gene expression: reduces rod gene expression and increases the expression of some cone genes
[3]
  rod degeneration in vitro: slows rod degeneration in vitro
